± gives the expanded uncertainty stated by the source.
Conditions: Liquid, Ebulliometric method (Recirculating still)

SMILES | vapor or sublimation pressure (417.53 K) [kPa] | vapor or sublimation pressure (433.71 K) [kPa] | vapor or sublimation pressure (443.3 K) [kPa] | vapor or sublimation pressure (389.1 K) [kPa] | vapor or sublimation pressure (404.15 K) [kPa] | vapor or sublimation pressure (413.57 K) [kPa]
CCCCCCCCCCCC(=O)OC [methyl dodecanoate] | 2 ± 0.21 | 4 ± 0.42 | 6 ± 0.63 |  |  | 
CCCCCCCCCC(=O)OC [methyl decanoate] |  |  |  | 2 ± 0.21 | 4 ± 0.42 | 6 ± 0.63
